Experimental data as given in patent US10280163B2 (BeiGene, Ltd., priority 2015, dated 2019).
Where two headings read alike, the source gives them in different places.

Assays:
Recombinant TDO = target: T1, Recombinant TDO (Homo sapiens, UniProt P48775); experiment: TDO enzymatic assay; assay type: biochemical; conditions: 100 nM TDO, 0.5 mM L-tryptophan, read-out: Enzyme IC50 (nM) TDO
T1 construct: His tag (C); made in house; host or cells: E. coli
Method: Recombinant TDO was overexpressed and purified from E. coli cells with a C-terminal His tag. TDO enzymatic assay was performed using the same methodology as IDO1 enzymatic assay except that 100 nM TDO and 0.5 mM L-tryptophan (Km concentration) were used in the TDO assay.

[1] = target: T2, cellular IDO1 in HeLa cells (Homo sapiens, UniProt P14902); experiment: HeLa cell-based IDO1 Kyn (kynurenine) production assay; conditions: IFN-γ 100 ng/mL, 48 hours
T2 construct: endogenous in cells; host or cells: HeLa cells (American Type Tissue Culture Collection), induced with human recombinant IFN-γ
T2 sequence (P14902 whole entry): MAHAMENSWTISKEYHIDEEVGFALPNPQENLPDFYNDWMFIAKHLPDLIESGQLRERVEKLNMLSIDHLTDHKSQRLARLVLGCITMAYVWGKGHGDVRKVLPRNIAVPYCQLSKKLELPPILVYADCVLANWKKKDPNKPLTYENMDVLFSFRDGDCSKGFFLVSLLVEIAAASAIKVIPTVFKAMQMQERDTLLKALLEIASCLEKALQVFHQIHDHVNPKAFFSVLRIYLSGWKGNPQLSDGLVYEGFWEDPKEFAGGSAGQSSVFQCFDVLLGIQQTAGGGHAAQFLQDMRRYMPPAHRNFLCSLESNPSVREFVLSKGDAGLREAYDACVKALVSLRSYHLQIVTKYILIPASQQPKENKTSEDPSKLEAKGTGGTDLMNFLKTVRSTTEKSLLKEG
Summary of the method: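 IFN-γ-induced HeLa cells (100 ng/mL) in phenol red-free DMEM with 0.4 mM L-Trp, compounds added together with IFN-γ, 48 h at 37 °C. Supernatant Kyn read at 480 nm after TCA precipitation and 4-(dimethylamino)benzaldehyde reaction. IC50 from four-parameter logistic fit.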

Recombinant IDO1 = target: T3, Recombinant IDO1 (Homo sapiens, UniProt P14902); experiment: IDO1 enzymatic assay; assay type: biochemical; conditions: 50 nM IDO1, 1.3 mM D-tryptophan, read-out: Enzyme IC50 (nM) IDO1
T3 construct: His tag (N); made in house; host or cells: E. coli
T3 sequence (P14902 whole entry): as above
Summary of the method: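 N-terminally His-tagged enzyme from E. coli (50 nM) was incubated with compound, 1.3 mM D-tryptophan, 5 mM ascorbate, 6.25 μM methylene blue and 0.4 mg/mL catalase in 50 mM potassium phosphate pH 7.5, 0.1% BSA for 1.5 h at 24° C. N′-formylkynurenine formation was followed at 321 nm for 1 h; IC50 from rate slopes.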

[2] = Table 1, 5-substituted imidazo[1,5-a]pyridines
[3] = Table 2, 8-substituted imidazo[1,5-a]pyridines

T1 sequence (P48775 whole entry): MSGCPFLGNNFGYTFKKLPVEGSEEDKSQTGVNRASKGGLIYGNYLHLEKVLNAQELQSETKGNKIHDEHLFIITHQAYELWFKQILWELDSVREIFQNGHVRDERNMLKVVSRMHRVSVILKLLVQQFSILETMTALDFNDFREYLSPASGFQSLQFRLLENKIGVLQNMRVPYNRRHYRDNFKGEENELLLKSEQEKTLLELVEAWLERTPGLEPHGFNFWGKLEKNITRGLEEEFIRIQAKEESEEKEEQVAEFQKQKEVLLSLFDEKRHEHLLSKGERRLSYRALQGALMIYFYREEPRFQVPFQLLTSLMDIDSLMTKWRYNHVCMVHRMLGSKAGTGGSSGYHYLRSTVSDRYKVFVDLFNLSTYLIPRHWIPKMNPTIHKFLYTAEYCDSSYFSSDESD

| Compound | IC50 (Recombinant TDO; [2]) | EC50 [1, 2] | IC50 (Recombinant IDO1; [2]) | IC50 (Recombinant TDO; [3]) | EC50 [1, 3] | IC50 (Recombinant IDO1; [3]) |
| --- | --- | --- | --- | --- | --- | --- |
| OC(CC1CCCCC1)c1c(Cl)ccc2cncn12 (single isomer, unassigned) [Example A117a] | 4100 nM | 92 nM | 11 nM | – | – | – |
| OC(CC1CCCCC1)c1c(Br)ccc2cncn12 (single isomer, unassigned) [Example A119a] | 14000 nM | 66 nM | 14 nM | – | – | – |
| OC(CC1CCCCC1)c1c(Br)ccc2cncn12 (single isomer, unassigned) [Example A119b] | 38000 nM | 9430 nM | 1300 nM | – | – | – |
| OC(CC1CCCCC1)c1c(I)ccc2cncn12 (single isomer, unassigned) [Example A124a] | 8800 nM | 92 nM | 9 nM | – | – | – |
| OC(CC1CCCCC1)c1c(I)ccc2cncn12 (single isomer, unassigned) [Example A124b] | 95000 nM | > 10000 nM | 1100 nM | – | – | – |
| OC(c1c(C2CC2)ccc2cncn12)C1CCCCC1 (single isomer, unassigned) [Example A126a] | 14000 nM | 156 nM | 36 nM | – | – | – |
| OC(c1c(C2CC2)ccc2cncn12)C1CCCCC1 (single isomer, unassigned) [Example A126b] | 74000 nM | > 10000 nM | 6800 nM | – | – | – |
| OC(CC1CCCCC1)c1c(C(F)(F)F)ccc2cncn12 (single isomer, unassigned) [Example A127a] | 15000 nM | 169 nM | 17 nM | – | – | – |
| OC(CC1CCCCC1)c1c(C(F)(F)F)ccc2cncn12 (single isomer, unassigned) [Example A127b] | 25000 nM | 8010 nM | 3200 nM | – | – | – |
| OC(c1c(C2CC2)ccc2cncn12)C1CCCCC1 (single isomer, unassigned) [Example A129a] | 1700 nM | 38 nM | 14 nM | – | – | – |
| OC(c1c(C2CC2)ccc2cncn12)C1CCCCC1 (single isomer, unassigned) [Example A129b] | 37000 nM | > 10000 nM | 21000 nM | – | – | – |
| Cc1ccn2cncc2c1C(O)C1CCCCC1 (single isomer, unassigned) [Example B102a] | – | – | – | 150 nM | 995 nM | 15 nM |
| Cc1ccn2cncc2c1C(O)C1CCCCC1 (single isomer, unassigned) [Example B102b] | – | – | – | 31000 nM | > 10000 nM | 3100 nM |
| OC(c1c(C2CC2)ccn2cncc12)C1CCCCC1 (single isomer, unassigned) [Example B107a] | – | – | – | 1300 nM | 136 nM | 47 nM |
| O[C@@H](c1c(C2CC2)ccn2cncc12)C1CCCCC1 (single isomer, unassigned) [Example B107b] | – | – | – | 11000 nM | > 10000 nM | 21000 nM |
| c1cc(CC2CCCCC2)n2cncc2c1 [Example A015, 5-(cyclohexylmethyl)imidazo[1,5-a]pyridine] | 260 nM | > 10000 nM | 540 nM | – | – | – |
| FC(c1cc(Cl)cc2cncn12)C1CCC(F)(F)CC1 (stereo not shown) [Example A020, 7-chloro-5-((4,4-difluorocyclohexyl)fluoromethyl)imidazo[1,5-a]pyridine] | 350 nM | > 10000 nM | 8900 nM | – | – | – |
| OC(c1c(C(F)(F)F)ccc2cncn12)C1CC1 (stereo not shown) [Example A132, cyclopropyl(6-(trifluoromethyl)imidazo[1,5-a]pyridin-5-yl)methanol] | 75000 nM | – | 210 nM | – | – | – |
| OC(c1c(Cl)c(Br)cc2cncn12)C1CC1 (stereo not shown) [Example A150, (7-bromo-6-chloroimidazo[1,5-a]pyridin-5-yl)(cyclooropyl)methanol] | 200 nM | – | 130 nM | – | – | – |
| OC(c1cccn2cncc12)C1CCCC1 (stereo not shown) [Example B002, Cyclopentyl(imidazo[1,5-a]pyridin-8-yl)methanol] | – | – | – | 810 nM | – | 2000 nM |
| OC(c1ccccc1)c1cccn2cncc12 (stereo not shown) [Example B004, Imidazo[1,5-a]pyridin-8-yl(phenyl)methanol] | – | – | – | 3900 nM | – | 17000 nM |
| OC(c1cccn2cncc12)C1CCCCCC1 (stereo not shown) [Example B005, Cycloheptyl(imidazo[1,5-a]pyridin-8-yl)methanol] | – | – | – | 740 nM | – | 990 nM |

The next lines start with the values.

| IC50 (Recombinant TDO; [2]) | EC50 [1, 2] | IC50 (Recombinant IDO1; [2]) | IC50 (Recombinant TDO; [3]) | EC50 [1, 3] | IC50 (Recombinant IDO1; [3]) | Compound |
| --- | --- | --- | --- | --- | --- | --- |
| 610 nM | > 10000 nM | 41 nM | – | – | – | OC(c1cccc2cncn12)C1CCCCC1 (single isomer, unassigned) [Example A001a] |
| 73 nM | 346 nM | 15 nM | – | – | – | OC(CC1CCCCC1)c1cc(Cl)cc2cncn12 (single isomer, unassigned) [Example A102a] |
| 1200 nM | > 10000 nM | 510 nM | – | – | – | OC(CC1CCCCC1)c1cc(Cl)cc2cncn12 (single isomer, unassigned) [Example A102b] |
| 97 nM | 2100 nM | 15 nM | – | – | – | OC(c1cc(C(F)(F)F)cc2cncn12)C1CCCCC1 (single isomer, unassigned) [Example A109a] |
| 1200 nM | > 10000 nM | 1400 nM | – | – | – | OC(c1cc(C(F)(F)F)cc2cncn12)C1CCCCC1 (single isomer, unassigned) [Example A109b] |
| 2600 nM | > 10000 nM | 890 nM | – | – | – | OC(CC1CCCCC1)c1cc(C(F)(F)F)cc2cncn12 (single isomer, unassigned) [Example A114a] |
| 170 nM | 5430 nM | 74 nM | – | – | – | OC(CC1CCCCC1)c1cc(C(F)(F)F)cc2cncn12 (single isomer, unassigned) [Example A114b] |
| 610 nM | 270 nM | 11 nM | – | – | – | OC(c1c(Cl)ccc2cncn12)C1CCCCC1 (single isomer, unassigned) [Example A116a] |
| 67000 nM | > 10000 nM | 4800 nM | – | – | – | OC(c1c(Cl)ccc2cncn12)C1CCCCC1 (single isomer, unassigned) [Example A116b] |
| 35000 nM | > 10000 nM | 1600 nM | – | – | – | OC(CC1CCCCC1)c1c(Cl)ccc2cncn12 (single isomer, unassigned) [Example A117b] |
| 1700 nM | 346 nM | 14 nM | – | – | – | OC(c1c(Br)ccc2cncn12)C1CCCCC1 (single isomer, unassigned) [Example A118a] |
| 53000 nM | > 10000 nM | 1600 nM | – | – | – | OC(c1c(Br)ccc2cncn12)C1CCCCC1 (single isomer, unassigned) [Example A118b] |
| 4500 nM | 138 nM | 15 nM | – | – | – | OC(c1c(I)ccc2cncn12)C1CCCCC1 (single isomer, unassigned) [Example A125a] |
| 46000 nM | > 10000 nM | 12000 nM | – | – | – | OC(c1c(I)ccc2cncn12)C1CCCCC1 (single isomer, unassigned) [Example A125b] |
| 690 nM | 274 nM | 20 nM | – | – | – | OC(c1c(Cl)c(Cl)cc2cncn12)C1CCCCC1 (single isomer, unassigned) [Example A143a] |
| 14000 nM | 6100 nM | 3400 nM | – | – | – | OC(c1c(Cl)c(Cl)cc2cncn12)C1CCCCC1 (single isomer, unassigned) [Example A143b] |
| 23000 nM | > 10000 nM | > 100000 nM | – | – | – | OC(CC1CCCCC1)c1c(Cl)c(Cl)cc2cncn12 (single isomer, unassigned) [Example A144a] |
| 240 nM | 291 nM | 14 nM | – | – | – | OC(CC1CCCCC1)c1c(Cl)c(Cl)cc2cncn12 (single isomer, unassigned) [Example A144b] |
| 260 nM | > 10000 nM | 150 nM | – | – | – | OC(c1cccc2cncn12)C1CCCCC1 (stereo not shown) [Example A001, Cyclohexyl(imidazo[1,5-a]pyridin-5-yl)methanol] |
| 260 nM | > 10000 nM | 110 nM | – | – | – | OC(c1cccc2cncn12)C1CCCCCC1 (stereo not shown) [Example A009, Cycloheptyl(imidazo[1,5-a]pyridin-5-yl)methanol] |
| 230 nM | – | 890 nM | – | – | – | O[C@@H](c1cc(Cl)cc2cncn12)C1CCCCC1 [Example A101b, (R)-(7-chloroimidazo[1,5-a]pyridin-5-yl)(cyclohexyl)methanol] |
| 420 nM | – | 260 nM | – | – | – | OC(CC1CCCCC1)c1cc(C(F)(F)F)cc2cncn12 (stereo not shown) [Example A114, 2-cyclohexyl-1-(7-(trifluoromethyl)imidazo[1,5-a]pyridin-5-yl)ethan-1-ol] |
| 1600 nM | – | 1000 nM | – | – | – | OC(c1c(Cl)c(C(F)(F)F)cc2cncn12)C1CCCCC1 (stereo not shown) [Example A155, (6-chloro-7-(trifluoromethyl)imidazo[1,5-a]pyridin-5-Yl)(cyclohexyl)methanol] |
